Measurements: ChEMBL document CHEMBL1201862, “PubChem BioAssay data set” (2004)
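Test compounds were applied to cells in 96-well plates for 48 hours at 5 doses. GI50 = concentration required for 50% inhibition of growth.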 Calls of active or inactive are those of the source. Rule as the data show it: active = GI50 up to about 1.1 µM and inactive = higher.

Tests used:
Assay in all cases: inhibition of tumour cell growth, NCI panel, 48 h
NCI-H23 = tested on: NCI-H23
K562 = tested on: K562
HT-29 = tested on: HT-29
786-0 = tested on: 786-0
SN12C = tested on: SN12C
MDA-MB-231 = tested on: MDA-MB-231
HL-60 = tested on: HL-60
EKVX = tested on: EKVX
RXF 393 = tested on: RXF 393
SF-268 = tested on: SF-268
LOX IMVI = tested on: LOX IMVI
SF-539 = tested on: SF-539
OVCAR-4 = tested on: OVCAR-4
UACC-62 = tested on: UACC-62
CCRF-CEM = tested on: CCRF-CEM
OVCAR-8 = tested on: OVCAR-8
SNB-75 = tested on: SNB-75
MCF7 = tested on: MCF7
DU-145 = tested on: DU-145
OVCAR-5 = tested on: OVCAR-5

Structure (SMILES) | GI50 (NCI-H23) | GI50 (K562) | GI50 (HT-29) | GI50 (786-0) | GI50 (SN12C) | GI50 (MDA-MB-231) | GI50 (HL-60) | GI50 (EKVX) | GI50 (RXF 393) | GI50 (SF-268) | GI50 (LOX IMVI) | GI50 (SF-539) | GI50 (OVCAR-4) | GI50 (UACC-62) | GI50 (CCRF-CEM) | GI50 (OVCAR-8) | GI50 (SNB-75) | GI50 (MCF7) | GI50 (DU-145) | GI50 (OVCAR-5)
COc1cc(/C=C/C(=N\NC(N)=S)c2sc(NNC(C)=O)nc2C)ccc1O | > 100 µM (inactive) | > 100 µM (inactive) | > 100 µM (inactive) | > 100 µM (inactive) | > 100 µM (inactive) | > 100 µM (inactive) | 29.6 µM (inactive) | > 100 µM (inactive) | > 100 µM (inactive) | > 100 µM (inactive) | > 100 µM (inactive) | > 100 µM (inactive) | > 100 µM (inactive) | > 100 µM (inactive) | > 100 µM (inactive) | > 100 µM (inactive) | > 100 µM (inactive) | > 100 µM (inactive) | > 100 µM (inactive) | > 100 µM (inactive)
CCCCN(CCCC)C1=Nc2ccccc2-n2c(nnc2C(=O)OCC)C1 | 74.6 µM (inactive) | 16.5 µM (inactive) | 22 µM (inactive) | 73.1 µM (inactive) | 51.1 µM (inactive) | 38.1 µM (inactive) | 15.6 µM (inactive) | 71.9 µM (inactive) | 24.7 µM (inactive) | 50.9 µM (inactive) | 38.8 µM (inactive) | 44.4 µM (inactive) | 61.8 µM (inactive) | 47.2 µM (inactive) | 43.5 µM (inactive) | 69.3 µM (inactive) | 33.1 µM (inactive) | 37.2 µM (inactive) | 75.3 µM (inactive) | > 100 µM (inactive)
CNC(=O)/C(=C/c1ccc(OC)cc1)c1cc(OC)c(OC)c(OC)c1 | 3.52 µM (inactive) | 0.546 µM (active) | 0.593 µM (active) | 3.47 µM (inactive) | 5.2 µM (inactive) | 6.14 µM (inactive) | 0.493 µM (active) | 10.1 µM (inactive) | 1.99 µM (inactive) | 4.83 µM (inactive) | 4.88 µM (inactive) | 1.34 µM (inactive) | 21.3 µM (inactive) | 0.67 µM (active) | 2.32 µM (inactive) | 4.12 µM (inactive) | 1.14 µM (inactive) | 0.769 µM (active) | 2.74 µM (inactive) | 20.7 µM (inactive)
c1ccc(CN[C@]23C4C5CC6C7C5C2C7[C@@](NCc2ccccc2)(C64)N3Cc2ccccc2)cc1 (stereo not given in full) | > 100 µM (inactive) | > 100 µM (inactive) | > 100 µM (inactive) | > 100 µM (inactive) | > 100 µM (inactive) | > 100 µM (inactive) | > 100 µM (inactive) | > 100 µM (inactive) | > 100 µM (inactive) | > 100 µM (inactive) | > 100 µM (inactive) | > 100 µM (inactive) | > 100 µM (inactive) | > 100 µM (inactive) | > 100 µM (inactive) | > 100 µM (inactive) | > 100 µM (inactive) | > 100 µM (inactive) | > 100 µM (inactive) | > 100 µM (inactive)
